Laboratory results taken from US12157746B2, “Tetrahydro-1H-pyrazino[2,1-a]isoindolylquinoline compounds for the treatment of autoimmune disease” (F. HOFFMANN-LA ROCHE AG, priority 2018, dated 2024).

target: T1, human TLR7 (Homo sapiens, UniProt Q9NYK1); assay: HEK293-Blue-hTLR-7 cells assay; format: cell-based; conditions: HEK293-Blue-hTLR7 cells, R848 stimulation, 20 hrs, SEAP reporter; read-out: HEK/hTLR7 IC50
T1 sequence (Q9NYK1 27-1049): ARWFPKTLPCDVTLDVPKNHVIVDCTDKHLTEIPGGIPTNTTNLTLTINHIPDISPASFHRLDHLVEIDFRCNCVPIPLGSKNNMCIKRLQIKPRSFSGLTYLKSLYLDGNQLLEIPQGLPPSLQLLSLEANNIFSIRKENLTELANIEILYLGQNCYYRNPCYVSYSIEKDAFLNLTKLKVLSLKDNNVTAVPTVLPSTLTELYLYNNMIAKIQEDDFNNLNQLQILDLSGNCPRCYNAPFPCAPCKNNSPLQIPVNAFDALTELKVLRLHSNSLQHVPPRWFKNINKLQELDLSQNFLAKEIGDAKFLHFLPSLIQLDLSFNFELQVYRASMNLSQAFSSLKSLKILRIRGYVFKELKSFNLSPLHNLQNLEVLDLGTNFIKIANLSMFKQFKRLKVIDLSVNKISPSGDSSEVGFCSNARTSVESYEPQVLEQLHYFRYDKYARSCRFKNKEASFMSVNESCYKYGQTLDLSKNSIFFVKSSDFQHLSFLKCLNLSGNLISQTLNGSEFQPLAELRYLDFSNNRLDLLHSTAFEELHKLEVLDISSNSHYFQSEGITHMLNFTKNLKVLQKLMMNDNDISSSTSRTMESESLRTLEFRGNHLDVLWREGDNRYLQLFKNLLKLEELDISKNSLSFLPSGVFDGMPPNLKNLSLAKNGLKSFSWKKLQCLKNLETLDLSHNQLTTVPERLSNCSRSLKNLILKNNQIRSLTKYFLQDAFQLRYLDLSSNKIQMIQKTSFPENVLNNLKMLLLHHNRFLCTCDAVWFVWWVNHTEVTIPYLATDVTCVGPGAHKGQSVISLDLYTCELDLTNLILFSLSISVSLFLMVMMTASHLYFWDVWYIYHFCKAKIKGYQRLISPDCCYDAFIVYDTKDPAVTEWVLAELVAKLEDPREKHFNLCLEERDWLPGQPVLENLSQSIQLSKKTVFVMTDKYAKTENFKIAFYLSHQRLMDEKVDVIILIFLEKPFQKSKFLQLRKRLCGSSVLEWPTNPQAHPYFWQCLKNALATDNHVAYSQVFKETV
In short: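 HEK293-Blue-hTLR7 cells (NF-κB/AP-1-driven SEAP reporter) incubated with serially diluted compound (1% DMSO final) and R848 agonist for 20 h at 37 °C. Supernatant SEAP measured with QUANTI-Blue (2 h, 37 °C) by absorbance at 620-655 nm; antagonism seen as reduced reporter.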

| IC50 [nM] | SMILES |
| --- | --- |
| 5.9 | CO[C@H]1CNC[C@@H]1Nc1ccc2c(c1)CN1[C@H](C)CN(c3ccc(C#N)c4ncccc34)C[C@H]21 [Example 62, 5-[(4R,10bS)-8-[[(3S,4S)-4-methoxypyrrolidin-3-yl]amino]-4-methyl-3,4,6,10b-tetrahydro-1H-pyrazino[2,1-a]isoindol-2-yl]quinoline-8-carbonitrile] |
| 9 | C[C@@H]1CN(c2ccc(C#N)c3ncccc23)C[C@@H]2c3ccc(NC[C@@H]4C[C@H](F)CN4)cc3CN12 [Example 70, 5-[(4R,10bS)-8-[[(2S,4S)-4-fluoropyrrolidin-2-yl]methylamino]-4-methyl-3,4,6,10b-tetrahydro-1H-pyrazino[2,1-a]isoindol-2-yl]quinoline-8-carbonitrile] |
| < 3.2 | C[C@@H]1CN(c2ccc(C#N)c3ncccc23)C[C@@H]2c3ccc(NC[C@@H]4CNCCO4)cc3CN12 [Example 58, 5-[(4R,10bS)-4-methyl-8-[[(2S)-morpholin-2-yl]methylamino]-3,4,6,10b-tetrahydro-1H-pyrazino[2,1-a]isoindol-2-yl]quinoline-8-carbonitrile] |
| 4.4 | C[C@@H]1CN(c2ccc(C#N)c3ncccc23)C[C@@H]2c3ccc(N[C@@H]4CCCNC4)cc3CN12 [Example 65, 5-[(4R,10bS)-4-methyl-8-[[(3R)-3-piperidyl]amino]-3,4,6,10b-tetrahydro-1H-pyrazino[2,1-a]isoindol-2-yl]quinoline-8-carbonitrile] |
| 18.2 | C[C@@H]1CN(c2ccc(C#N)c3ncccc23)C[C@@H]2c3ccc(NCC4(F)CNC4)cc3CN12 [Example 69, 5-[(4R,10bS)-8-[(3-fluoroazetidin-3-yl)methylamino]-4-methyl-3,4,6,10b-tetrahydro-1H-pyrazino[2,1-a]isoindol-2-yl]quinoline-8-carbonitrile] |
| < 3.2 | CO[C@H]1CNCC[C@H]1Nc1ccc2c(c1)CN1[C@H](C)CN(c3ccc(C#N)c4ncccc34)C[C@H]21 [Example 66, 5-[(4R,10bS)-8-[[(3S,4R)-3-methoxy-4-piperidyl]amino]-4-methyl-3,4,6,10b-tetrahydro-1H-pyrazino[2,1-a]isoindol-2-yl]quinoline-8-carbonitrile] |
| 17.9 | C[C@@H]1CN(c2ccc(C#N)c3ncccc23)C[C@@H]2c3cccc(NCCN4CC[C@H](O)C4)c3CN12 [Example 80, 5-[(4R,10bS)-7-[2-[(3S)-3-hydroxypyrrolidin-1-yl]ethylamino]-4-methyl-3,4,6,10b-tetrahydro-1H-pyrazino[2,1-a]isoindol-2-yl]quinoline-8-carbonitrile] |
| 3.2 | CO[C@@H]1CNC[C@@H]1Nc1ccc2c(c1)CN1[C@H](C)CN(c3ccc(C#N)c4ncccc34)C[C@H]21 [Example 60, 5-[(4R,10bS)-8-[[(3S,4R)-4-methoxypyrrolidin-3-yl]amino]-4-methyl-3,4,6,10b-tetrahydro-1H-pyrazino[2,1-a]isoindol-2-yl]quinoline-8-carbonitrile] |
| 1.2 | C[C@@H]1CN(c2ccc(C#N)c3ncsc23)C[C@@H]2c3ccc(N[C@H]4CNC[C@H]4F)cc3CN12 [Example 78, 7-[(4R,10bS)-8-[[(3S,4R)-4-fluoropyrrolidin-3-yl]amino]-4-methyl-3,4,6,10b-tetrahydro-1H-pyrazino[2,1-a]isoindol-2-yl]-1,3-benzothiazole-4-carbonitrile] |
| < 3.2 | C[C@@H]1CN(c2ccc(C#N)c3ncccc23)C[C@@H]2c3ccc(NC[C@H]4CNCCO4)cc3CN12 [Example 59, 5-[(4R,10bS)-4-methyl-8-[[(2R)-morpholin-2-yl]methylamino]-3,4,6,10b-tetrahydro-1H-pyrazino[2,1-a]isoindol-2-yl]quinoline-8-carbonitrile] |
| < 3.2 | C[C@@H]1CN(c2ccc(C#N)c3ncccc23)C[C@@H]2c3ccc(N4CCNCC4)cc3CN12 [Example 1, 5-[(4R,10bS)-4-methyl-8-piperazin-1-yl-3,4,6,10b-tetrahydro-1H-pyrazino[2,1-a]isoindol-2-yl]quinoline-8-carbonitrile] |
| 6.9 | C[C@@H]1CN(c2ccc(C#N)c3ncccc23)C[C@@H]2c3cc(F)c(N4CC5CNCC(C4)O5)cc3CN12 [Example 85, 5-[(4R,10bS)-9-fluoro-4-methyl-8-(9-oxa-3,7-diazabicyclo[3.3.1]nonan-3-yl)-3,4,6,10b-tetrahydro-1H-pyrazino[2,1-a]isoindol-2-yl]quinoline-8-carbonitrile] |
| 3.9 | C[C@@H]1CN(c2ccc(C#N)c3ncccc23)C[C@@H]2c3ccc(OC[C@@H]4C[C@H](F)CN4)cc3CN12 [Example 74, 5-[(4R,10bS)-8-[[(2S,4S)-4-fluoropyrrolidin-2-yl]methoxy]-4-methyl-3,4,6,10b-tetrahydro-1H-pyrazino[2,1-a]isoindol-2-yl]quinoline-8-carbonitrile] |
| < 3.2 | CO[C@H]1CNC[C@@H]1N(C)c1ccc2c(c1)CN1[C@H](C)CN(c3ccc(C#N)c4ncccc34)C[C@H]21 [Example 64, 5-[(4R,10bS)-8-[[(3S,4S)-4-methoxypyrrolidin-3-yl]-methyl-amino]-4-methyl-3,4,6,10b-tetrahydro-1H-pyrazino[2,1-a]isoindol-2-yl]quinoline-8-carbonitrile] |
| < 3.2 | C[C@@H]1CN(c2ccc(C#N)c3ncccc23)C[C@@H]2c3ccc(N4C[C@H]5CNCCN5C4=O)cc3CN12 [Example 72, 5-[(4R,10bS)-8-[(8aR)-3-oxo-1,5,6,7,8,8a-hexahydroimidazo[1,5-a]pyrazin-2-yl]-4-methyl-3,4,6,10b-tetrahydro-1H-pyrazino[2,1-a]isoindol-2-yl]quinoline-8-carbonitrile] |
| 5.7 | CO[C@H]1CNC[C@H]1Nc1ccc2c(c1)CN1[C@H](C)CN(c3ccc(C#N)c4ncccc34)C[C@H]21 [Example 61, 5-[(4R,10bS)-8-[[(3R,4S)-4-methoxypyrrolidin-3-yl]amino]-4-methyl-3,4,6,10b-tetrahydro-1H-pyrazino[2,1-a]isoindol-2-yl]quinoline-8-carbonitrile] |
| 7.6 | C[C@@H]1CN(c2ccc(Cl)c3ncccc23)C[C@@H]2c3ccc(N[C@H]4CNC[C@H]4F)cc3CN12 [Example 79, (4R,10b)-2-(8-chloro-5-quinolyl)-N-[(3S,4R)-4-fluoropyrrolidin-3-yl]-4-methyl-3,4,6,10b-tetrahydro-1H-pyrazino[2,1-a]isoindol-8-amine] |
| 11.1 | C[C@@H]1CN(c2ccc(C#N)c3ncccc23)C[C@@H]2c3ccc(NCC4COCCN4)cc3CN12 (stereo partly drawn) [Example 57, 5-[(4R,10bS)-4-methyl-8-(morpholin-3-ylmethylamino)-3,4,6,10b-tetrahydro-1H-pyrazino[2,1-a]isoindol-2-yl]quinoline-8-carbonitrile] |
| 2.7 | C[C@@H]1CN(c2ccc(C#N)c3ncccc23)C[C@@H]2c3cc(F)c(N4C[C@H](N)[C@@](C)(O)C4)cc3CN12 [Example 83, 5-[(4R,10bS)-8-[(3S,4S)-4-amino-3-hydroxy-3-methyl-pyrrolidin-1-yl]-9-fluoro-4-methyl-3,4,6,10b-tetrahydro-1H-pyrazino[2,1-a]isoindol-2-yl]quinoline-8-carbonitrile] |
| 2.9 | [2H]c1ccc2c(N3C[C@@H](C)N4Cc5cc(N6CC7(CNCCO7)C6)ccc5[C@H]4C3)ccc(C#N)c2n1 [Example 90, 5-[(4R,10bS)-4-methyl-8-(5-oxa-2,8-diazaspiro[3.5]nonan-2-yl)-3,4,6,10b-tetrahydro-1H-pyrazino[2,1-a]isoindol-2-yl]-2-deuterio-quinoline-8-carbonitrile] |
| 3.7 | C[C@@H]1CN(c2ccc(C#N)c3ncccc23)C[C@@H]2c3ccc(C(=O)N4CCC(C)(N)CC4)cc3CN12 [Example 88, 5-[(4R,10bS)-8-(4-amino-4-methyl-piperidine-1-carbonyl)-4-methyl-3,4,6,10b-tetrahydro-1H-pyrazino[2,1-a]isoindol-2-yl]quinoline-8-carbonitrile] |
| 4.5 | C[C@@H]1CN(c2ccc(C#N)c3ncccc23)C[C@@H]2c3ccc(N[C@H]4CNCCOC4)cc3CN12 [Example 56B, 5-[(4R,10bS)-4-methyl-8-[[(6S)-1,4-oxazepan-6-yl]amino]-3,4,6,10b-tetrahydro-1H-pyrazino[2,1-a]isoindol-2-yl]quinoline-8-carbonitrile] |
| 7.3 | CO[C@@H]1CNC[C@H]1Nc1cc2c(cc1C)[C@H]1CN(c3ccc(C#N)c4ncccc34)C[C@@H](C)N1C2 [Example 63, 5-[(4R,10bS)-8-[[(3R,4R)-4-methoxypyrrolidin-3-yl]amino]-4,9-dimethyl-3,4,6,10b-tetrahydro-1H-pyrazino[2,1-a]isoindol-2-yl]quinoline-8-carbonitrile] |
